Results from BigSolDB 2.1.

`CCc1nnc(NC(=O)c2ccc([N+](=O)[O-])cc2)s1` gave a solubility (mole fraction) (in ethanol, 288.15 K) of 2.81e-05, a solubility (mole fraction) (in ethanol, 293.15 K) of 3.17e-05 and a solubility (mole fraction) (in ethanol, 298.15 K) of 3.91e-05. For the same compound, the solubility (mole fraction) (in ethanol, 303.15 K) was 4.87e-05, the solubility (mole fraction) (in ethanol, 308.15 K) was 5.95e-05 and the solubility (mole fraction) (in ethanol, 313.15 K) was 7.34e-05. The solubility (mole fraction) (in ethanol, 318.15 K) was 8.87e-05, the solubility (mole fraction) (in n-hexane, 288.15 K) was 6.2e-06 and the solubility (mole fraction) (in n-hexane, 293.15 K) was 7.4e-06. The solubility (mole fraction) (in n-hexane, 298.15 K) was 9.5e-06, the solubility (mole fraction) (in n-hexane, 303.15 K) was 1.19e-05 and the solubility (mole fraction) (in n-hexane, 308.15 K) was 1.44e-05. For the same compound, the solubility (mole fraction) (in n-hexane, 313.15 K) was 1.79e-05, the solubility (mole fraction) (in n-hexane, 318.15 K) was 2.11e-05 and the solubility (mole fraction) (in n-octanol, 288.15 K) was 4.34e-05. The solubility (mole fraction) (in n-octanol, 293.15 K) was 5.22e-05, the solubility (mole fraction) (in n-octanol, 298.15 K) was 6.52e-05 and the solubility (mole fraction) (in n-octanol, 303.15 K) was 8.06e-05. For the same compound, the solubility (mole fraction) (in n-octanol, 308.15 K) was 9.61e-05, the solubility (mole fraction) (in n-octanol, 313.15 K) was 0.000118 and the solubility (mole fraction) (in n-octanol, 318.15 K) was 0.00014.
